Measurements reported in patent US7767455B2, “Nucleus export reporter system” (priority 2000, dated 2010).

Assays:
[1] = system: Rev-mediated nuclear export; test: Inhibition of Rev-dependent GFP expression of the UTR-hivGFP-RRE reporter in transfected H1299 cells (Western blot); type: cell-based, human; settings: 5 nM LMB in the medium 24 h before harvesting, Rev cotransfected, FIG. 5B
[2] = system: huGFP reporter; test: Expression of the Rev-independent huGFP reporter in transfected H1299 cells (Western blot); type: cell-based, human; settings: 5 nM LMB in the medium 24 h before harvesting, FIG. 5B

## CCC(=C/[C@H](C)C/C=C/C(C)=C/[C@@H](C)C(=O)[C@@H](C)[C@H](O)[C@@H](C)C/C(C)=C/C(=O)O)/C=C/[C@@H]1OC(=O)C=C[C@@H]1C [LMB, Leptomycin B]
[1]
  expression of the Rev-dependent GFP reporter: inhibit
[2]
  expression of the huGFP reporter: not the expression of the huGFP reporter
